Assay results as given in publication PMC6661775 (BMC Chemistry, 2019).

Key:
[1] = Hydrogen peroxide scavenging (H2O2) assay; details: 230 nm, pH 7.4, ± SEM, read-out: IC50 (µM) ± SEM, H2O2 method
Method: The solution of H2O2 (100 mM) was prepared via adding up different concentrations of synthesized derivatives ranging from 5 to 80 μg/ml to H2O2 solution (2 ml), prepared in 20 mM phosphate buffer of pH 7.4. Finally, the absorbance of H2O2 was measured at 230 nm after incubating for 10 min next to a blank reading of phosphate buffer without H2O2. For every measurement, a fresh reading of blank was taken to carry out background correction. For control sample containing H2O2 was scanned for absorbance at 230 nm. Results calculated as percentage of hydrogen peroxide inhibition was estimated by the formula [(Ab–At)/[…]] × 100, where Ab is the absorbance of the control and At is the absorbance of compounds/standard taken as L-ascorbic acid (5–80 μg/ml) are shown in Table 5.

[2] = Antioxidant activity by DPPH method; details: DPPH radical scavenging, 517 nm; ± SEM
Method: This method opted for evaluation of free radical scavenging activity of DPPH was based on modified procedure described by […] et al.. The tested compounds were prepared in methanolic solution and reacted with methanolic solution of DPPH at 37 °C. The reaction mixture was prepared in 96-well plate by adding 50 μL of sample, 50 μl of methanol and 50 μl of DPPH solution prepared in 0.1 mM methanol. The mechanism of action of DPPH assay was based on the fact that DPPH radical get reduced during its reaction with an antioxidant compound and results in changes of color (from deep violet to light yellow). […] The mixture of methanol (5.0 ml) and tested compounds (0.2 ml) serve as blank. Ascorbic acid served as positive control.

[3] = tested on: T1, xanthine oxidase; experiment: Enzyme kinetic analysis for XO-inhibitory activity (Michaelis-Menten, Lineweaver-Burk); assay type: biochemical, human
T1 construct: purchased Sigma (Sigma-Aldrich) MAK078
T1 sequence (P47989 whole entry): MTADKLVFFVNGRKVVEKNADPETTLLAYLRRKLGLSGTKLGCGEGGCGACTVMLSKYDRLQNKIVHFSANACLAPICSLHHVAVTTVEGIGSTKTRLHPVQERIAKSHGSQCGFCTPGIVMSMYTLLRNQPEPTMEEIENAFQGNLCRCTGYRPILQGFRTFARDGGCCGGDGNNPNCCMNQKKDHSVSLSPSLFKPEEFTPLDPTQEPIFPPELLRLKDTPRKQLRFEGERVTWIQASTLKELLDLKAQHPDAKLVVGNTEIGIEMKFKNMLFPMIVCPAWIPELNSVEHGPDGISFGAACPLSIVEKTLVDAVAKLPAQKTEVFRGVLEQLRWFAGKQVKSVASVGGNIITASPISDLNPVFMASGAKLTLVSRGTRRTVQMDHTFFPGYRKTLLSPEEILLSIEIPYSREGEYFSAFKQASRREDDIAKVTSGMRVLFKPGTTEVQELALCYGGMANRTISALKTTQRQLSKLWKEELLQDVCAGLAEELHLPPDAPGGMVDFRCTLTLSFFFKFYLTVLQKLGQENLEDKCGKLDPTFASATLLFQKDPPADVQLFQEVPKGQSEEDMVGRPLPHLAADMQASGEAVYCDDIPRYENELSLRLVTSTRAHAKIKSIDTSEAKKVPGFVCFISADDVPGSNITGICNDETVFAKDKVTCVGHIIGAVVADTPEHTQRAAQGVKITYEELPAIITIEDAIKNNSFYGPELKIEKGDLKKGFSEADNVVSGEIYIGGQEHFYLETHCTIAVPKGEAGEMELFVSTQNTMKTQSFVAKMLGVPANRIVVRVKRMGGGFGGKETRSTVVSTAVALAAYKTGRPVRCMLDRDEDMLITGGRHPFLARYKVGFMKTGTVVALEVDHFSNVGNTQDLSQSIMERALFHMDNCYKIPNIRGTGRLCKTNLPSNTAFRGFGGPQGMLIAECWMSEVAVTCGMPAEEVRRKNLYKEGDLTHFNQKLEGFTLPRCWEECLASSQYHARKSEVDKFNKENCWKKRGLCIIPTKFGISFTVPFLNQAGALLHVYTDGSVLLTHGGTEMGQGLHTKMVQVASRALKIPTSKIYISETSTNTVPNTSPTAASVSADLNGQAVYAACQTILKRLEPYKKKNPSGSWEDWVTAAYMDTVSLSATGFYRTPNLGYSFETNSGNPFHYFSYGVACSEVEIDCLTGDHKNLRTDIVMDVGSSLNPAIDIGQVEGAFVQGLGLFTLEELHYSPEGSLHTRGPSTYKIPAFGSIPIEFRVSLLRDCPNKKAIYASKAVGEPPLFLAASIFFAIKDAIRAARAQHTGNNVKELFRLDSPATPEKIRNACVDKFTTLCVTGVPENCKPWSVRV
Method: Firstly Michaelis–Menten curve was plotted for the enzyme activity at different concentrations of RU3a3 against different concentration of substrate (xanthine) Fig. 11.
Then double reciprocal plot (Lineweaver–Burk) analysis was done in the presence (0.25, 0.5, and 1.0 µM) and absence of RU3a3 from in vitro data generated during the oxidation of xanthine in presence of xanthine oxidase (Fig. 12). The x- and y axis intercepts of the Lineweaver–Burk plot were utilized to calculate Km and Vmax values of RU3a3 at different concentrations (Table 4).

CC1OC(OCC2OC(Oc3c(-c4ccc(O)c(O)c4)oc4cc(O)cc(O)c4c3=Nc3ccc([N+](=O)[O-])cc3)C(O)C(O)C2O)C(O)C(O)C1O (centres unmarked) [RU4b2]
IC50 [1]: 4.378 ± 0.01 µM
IC50 [2]: 8.48 ± 0.25 µM

CC1OC(OCC2OC(Oc3c(-c4ccc(O)c(O)c4)oc4cc(O)cc(O)c4c3=Nc3ccc([N+](=O)[O-])cc3Cl)C(O)C(O)C2O)C(O)C(O)C1O (centres unmarked) [RU4b1]
IC50 [1]: 9.86 ± 0.25 µM
IC50 [2]: 2.65 ± 0.09 µM

CC1OC(OCC2OC(Oc3c(-c4ccc(O)c(O)c4)oc4cc(O)cc(O)c4c3=NNc3ccccc3)C(O)C(O)C2O)C(O)C(O)C1O (centres unmarked) [RU3a3]
Vmax of xanthine oxidase ([3]; Conc. of RU3a3 0.25 µM): 114.4 µmol/min
Vmax of xanthine oxidase ([3]; Conc. of RU3a3 0.5 µM): 108.2 µmol/min
Vmax of xanthine oxidase ([3]; Conc. of RU3a3 1.0 µM): 98.7 µmol/min
Manner of xanthine oxidase inhibition ([3]; Lineweaver-Burk plot): competitive manner
IC50 [1]: 6.56 ± 0.1 µM
IC50 [2]: 11.688 ± 0.01 µM

COc1cc(OC)c2c(=O)c(OC(=O)c3cccnc3)c(-c3ccc(OC)c(OC)c3)oc2c1 [RU7c1]
IC50 [1]: 14.7 ± 0.6 µM
IC50 [2]: 6.06 ± 0.13 µM

CC1OC(OCC2OC(Oc3c(-c4ccc(O)c(O)c4)oc4cc(O)cc(O)c4c3=NNC(=S)Nc3ccccc3)C(O)C(O)C2O)C(O)C(O)C1O (centres unmarked) [RU3a2]
IC50 [1]: 4.146 ± 0.01 µM
IC50 [2]: 8.728 ± 0.02 µM

CC1OC(OCC2OC(Oc3c(-c4ccc(O)c(O)c4)oc4cc(O)cc(O)c4c3=NNC(N)=S)C(O)C(O)C2O)C(O)C(O)C1O (centres unmarked) [RU3a1]
IC50 [1]: 9.13 ± 0.35 µM
IC50 [2]: 5.02 ± 0.1 µM

COc1cc(OC)c2c(=O)c(OC(=O)/C=C/c3ccccc3)c(-c3ccc(OC)c(OC)c3)oc2c1 [RU7c3]
IC50 [1]: 17.9 ± 0.41 µM
IC50 [2]: 7.69 ± 0.42 µM

COc1cc(OC)c2c(=O)c(OC(=O)c3ccccc3O)c(-c3ccc(OC)c(OC)c3)oc2c1 [RU7c2]
IC50 [1]: 12.1 ± 0.2 µM
IC50 [2]: 14.669 ± 0.01 µM
